Assay results from article PMC3708395, “Hepatoprotective and Antioxidant Effects of Saponarin, Isolated from Gypsophila trichotoma Wend. on Paracetamol-Induced Liver Damage in Rats” (BioMed Research International, 2013).
Several values for one entry are separate records, joined by “and”; a condition that tells them apart may be missing. Identical values can stand only once. Entries after “also recorded” stand apart in the source; their conditions may differ. One block for each compound: values may come before it.

How the values were obtained:
[1] = tested on: Male Wistar rats; test: Lipid peroxidation (MDA) in rat liver homogenate, in vivo paracetamol model; details: for MDA: rat liver homogenate
Experimental: The animals were divided into six groups (n = 6). […] The animals in all groups were sacrificed on the eighth day of the beginning of the experiment. Livers were taken for assessment of biochemical parameters. For all following experiments the excised livers were washed out with cold saline solution (0.9% NaCl), blotted dray, weighed, and homogenized with appropriate buffers. Lipid peroxidation was determined by measuring the rate of production of thiobarbituric acid reactive substances (TBARS) (expressed as malondialdehyde (MDA) equivalents) described by Polizio and Peña with slight modifications. Briefly one volume of homogenate was mixed with 1 mL 25% trichloroacetic acid (TCA) and 1 mL 0.67% thiobarbituric acid (TBA). Samples were then mixed thoroughly, heated for 20 min in a boiling water bath, cooled and centrifuged at 4000 rpm for 20 min. The absorbance of supernatant was measured at 535 nm against a blank that contained all the reagents except the tissue homogenate. MDA concentration was calculated using a molar extinction coefficient of 1.56 × 10^5 M^−1 cm^−1 and expressed in nmol/g wet tissue.

[2] = tested on: Male Wistar rats; test: GSH level in rat liver homogenate, in vivo paracetamol model; details: for GSH: rat liver homogenate
Experimental: The animals were divided into six groups (n = 6). […] The animals in all groups were sacrificed on the eighth day of the beginning of the experiment. Livers were taken for assessment of biochemical parameters. For all following experiments the excised livers were washed out with cold saline solution (0.9% NaCl), blotted dray, weighed, and homogenized with appropriate buffers. GSH was assessed by measuring nonprotein sulfhydryls after precipitation of proteins with TCA, using the method described by Bump et al.. Briefly, tissues were homogenized in 5% trichloroacetic acid (TCA) and centrifugated for 20 min at 4 000 ×g. […] The absorbance was determined at 412 nm and the results expressed as nmol/g wet tissue.

[3] = tested on: Male Wistar rats; test: Antioxidant enzyme activities (SOD, CAT, GPx, GR, GST) in rat liver homogenate, in vivo paracetamol model; details: for CAT / GPx / GR / GST / SOD: rat liver homogenate
Source text: The animals were divided into six groups (n = 6). […] The animals in all groups were sacrificed on the eighth day of the beginning of the experiment. Livers were taken for assessment of biochemical parameters. For all following experiments the excised livers were washed out with cold saline solution (0.9% NaCl), blotted dray, weighed, and homogenized with appropriate buffers. The livers were rinsed in ice-cold physiological saline and minced with scissors. […] Catalase (CAT) activity was determined by measuring the decrease in absorbance at 240 nm. […] SOD activity was expressed as nmol of epinephrine that are prevented from autoxidation after addition of the sample. […] The rate of disappearance of NADPH with time was determined by monitoring absorbance at 340 nm. Results are expressed in nmol/mg. Glutathione reductase activity (GR) was measured according to the method of Pinto et al. by following NADPH oxidation spectrophotometrically at 340 nm and using an extinction coefficient of 6.22 mM^−1 cm^−1. […] The enzyme activity is expressed as nmol of CDNB-GSH conjugate formed/min/mg protein.

[4] = tested on: Male Wistar rats; test: Phase I of biotransformation: cytochrome P450, EMND and AH in rat liver microsomes after in vivo treatment
Experimental: The animals were divided into six groups (n = 6). […] The animals in all groups were sacrificed on the eighth day of the beginning of the experiment. Livers were taken for assessment of biochemical parameters. For all following experiments the excised livers were washed out with cold saline solution (0.9% NaCl), blotted dray, weighed, and homogenized with appropriate buffers. The excised, perfused, and minced livers were homogenized with 3 mL of 1.17% KCl than centrifugated at 10 000 ×g for 30 min. The supernatant fractions were further centrifugated at 105 000 ×g for 60 min. The resulting microsomal pellets were stored at −20°C until assayed. At the day of assay the microsomal pellets were resuspended and diluted with phosphate buffer EDTA (pH = 7.4). Liver protein concentration was measured, using the method of Lowry and was adjusted to 4 mg/mL. (1) Assessment of Cytochrome P450 Quantity. Cytochrome P450 was quantified spectrophotometrically as a complex with CO at 450 nm and expressed as nmol/mg^−1 protein [28]. […] The method used 4-hydroxylation of aniline to 4-aminophenol that is chemically converted to a phenol-indophenol complex with an absorption maximum at 630 nm. Enzyme activity was expressed as nmol/min/mg. […] The enzyme activity was evaluated by the formation of formaldehyde, trapped in the solution as semicarbazone, and measured by the colorimetric procedure of Nash, at 415 nm. Enzyme activity was expressed as nmol/min/mg.

[5] = tested on: Male Wistar rats; test: Histopathological study of liver; type: in vivo, rat
Source text: The animals were divided into six groups (n = 6). […] The animals in all groups were sacrificed on the eighth day of the beginning of the experiment. Livers were taken for assessment of biochemical parameters. For all following experiments the excised livers were washed out with cold saline solution (0.9% NaCl), blotted dray, weighed, and homogenized with appropriate buffers. For light microscopic evaluation, liver tissues were fixed in 10% buffered formalin and then thin sections (4 μm) were subsequently stained with hematoxylin/eosin for general histological features determination. Sections were studied under light microscope Leica DM 500.

[6] = parameters: method as in earlier work; details: concentration range 0.5 mg/mL; cited from earlier work
[7] = tested on: isolated rat hepatocytes; test: Paracetamol-induced model of toxicity in isolated rat hepatocytes; details: 30 min preincubation with saponarin 60–0.006 μg/mL, then paracetamol 100 μmol for one hour; concentration-dependent
Experimental: The effect of saponarin was compared to those of silymarin (50–0.005 μg/mL). The following parameters were measured to assess the functional status of hepatocytes: cell viability, lactate dehydrogenase (LDH) activity, reduced glutathione (GSH) levels, and malondialdehyde (MDA) quantity. Cell viability was assessed by Trypan blue exclusion method [19]. The dye was used at a final concentration of 0.05% and cells were counted under light microscope (×100). At the end of incubation, the cells were recovered via centrifugation at 400 ×g at 4°C. The supernatant was used for LDH and MDA assessment as described by Bergmeyer et al. [21] and Fau at al. [19], respectively. GSH measurement following the method used by Fau at al. [19] was assessed in the sediment.

[8] = saponarin 80 mg/kg bw/day p.o. 7 days, alone
[9] = saponarin 80 mg/kg p.o. 7 days pretreatment then paracetamol 600 mg/kg i.p.
[10] = saponarin pretreatment seven days then single i.p. paracetamol, compared to paracetamol alone
[11] = rat liver microsomes, saponarin 80 mg/kg bw/day p.o. 7 days, alone
[12] = saponarin alone 80 mg/kg p.o. 7 days, vs control
[13] = paracetamol 600 mg/kg i.p. alone
[14] = paracetamol 600 mg/kg i.p. alone, compared to control animals

AH activity [4, 11]: 0.047 ± 0.004 nmol/mg protein | Cytochrome P450 [4, 11]: 0.244 ± 0.05 nmol/mg protein | EMND activity [4, 11]: 0.371 ± 0.011 nmol/mg protein | decrease in AH activity [4, 12]: 37% | decrease in EMND activity [4, 12]: 24% | decrease in total P450 quantity [4, 12]: 25%
Compound: apigenin 6-C-glucosyl-7-O-glucoside [saponarin]
MDA [1, 8]: 0.635 ± 0.07 nmol/g protein | MDA content relative to control level [1, 9]: restored to the control level | reduction of MDA in rat liver homogenate ([1]; saponarin 80 mg/kg p.o. 7 days pretreatment then paracetamol 600 mg/kg i.p., compared to PC-treated group): 18% | GSH [2, 8]: 5.14 ± 0.31 nmol/g protein | GSH levels compared to the paracetamol-only group [2, 9]: significantly higher levels of GSH | CAT [3, 8]: 110.4 ± 16 μmol H2O2/min/mg protein | GPx [3, 8]: 0.125 ± 0.02 nmol/min/mg protein | GR [3, 8]: 0.207 ± 0.03 nmol/min/mg protein | GST [3, 8]: 0.208 ± 0.02 nmol CDNB-GSH conjugate formed/min/mg protein | SOD [3, 8]: 0.158 ± 0.015 nmol/min/mg protein | increase in GPx activity [3, 10]: 21% | increase in GR activity [3, 10]: 39% | increase in GST activity [3, 10]: 21% | increase in SOD activity [3, 10]: 24% | liver histopathology ([5]; rats pretreated with saponarin (80 mg/kg p.o. 7 days) then challenged with paracetamol 600 mg/kg i.p.): lower intensity of mononuclear accumulations and the presence of single cells showing intracellular oedema; also recorded: significant improvement of hepatocellular architecture | inhibition of DPPH radical [6]: 88.8% | protection against paracetamol-induced injury (cell viability, LDH activity, MDA quantity, GSH levels) [7]: prevented the liver injury

increase of MDA level in rat liver homogenate ([1]; paracetamol 600 mg/kg i.p. alone, vs control animals): 30% | MDA [1, 13]: 0.854 ± 0.04 nmol/g protein | reduction in GSH levels in rat liver homogenate [2, 14]: 83% | GSH [2, 13]: 0.96 ± 0.05 nmol/g protein | decrease in CAT activity [3, 14]: 27% | decrease in GPx activity [3, 14]: 31-32% | decrease in GR activity [3, 14]: 38% | decrease in GST activity [3, 14]: 31% and 31-32% | CAT [3, 13]: 88.3 ± 10 μmol H2O2/min/mg protein | GPx [3, 13]: 0.089 ± 0.01 nmol/min/mg protein | GR [3, 13]: 0.137 ± 0.02 nmol/min/mg protein | SOD [3, 13]: 0.114 ± 0.012 nmol/min/mg protein
Compound: CC(=O)Nc1ccc(O)cc1 [paracetamol]
GST [3, 13]: 0.160 ± 0.01 nmol CDNB-GSH conjugate formed/min/mg protein | liver histopathology ([5]; paracetamol 600 mg/kg i.p. alone, hematoxylin/eosin, light microscopy): treatment-related changes associated with hepatotoxicity; also recorded: centriacinar and microvesicular accumulation of fats
